Laboratory results taken from patent publication US20250304600A1, “PHARMACEUTICAL COMPOUNDS AND COMPOSITIONS AS c-KIT KINASE INHIBITORS” (Enanta Pharmaceuticals, Inc., priority 2023, published 2025).

Assays:
[1] = biological target: T1, Recombinant human c-KIT kinase (Homo sapiens, UniProt P10721); experiment: c-KIT kinase chemiluminescence assay (ADP-Glo); format: biochemical; details: ATP 50 μM
T1 construct: purchased Promega V4498
Protocol: The c-KIT Kinase Enzyme System (V4498) and ADP-Glo™ Kinase Assay kit (V6930) were purchased from Promega (Madison, WI). DMSO (D2650) was purchased from Sigma-Aldrich (Burlington, MA).
c-KIT Kinase Chemiluminescence Assay:
Kinase Reaction: The kinase assay was based on the recommended protocol by c-KIT Kinase Enzyme System from Promega. Recombinant human c-KIT kinase in 3 μL of assay buffer (40 mM Tris pH 7.5, 20 mM MgCl2, 0.1 mg/mL BSA and 50 μM DTT) was added to the test or high control wells and 3 μL of assay buffer was added to the low control wells. The microplate was centrifuged at 800 rotations per minute (rpm) for 60 s and incubated at room temperature (RT) for 30 min. Next, 2 μL of buffered ATP and polyEY substrate solution was added to all wells. The microplate was centrifuged at 800 rpm for 60 s and incubated at RT for 2 h.
ADP detection with ADP-Glo™ Kinase Assay: After the kinase reaction incubation, 5 μL of ADP-Glo™ reagent was added to all wells. The microplate was centrifuged at 800 rpm for 60 s and incubated at RT for 40 min. Ten microliter (10 μL) of Kinase Detection Reagent (Luciferin-Luciferase system) was then added to all wells. The microplate was centrifuged at 800 rpm for 60 s and incubated at RT for 60 min. Kinase activity was measured as an increase in luminescence at RT in an Envision plate reader equipped with 560 nm filters and operating in endpoint mode.
Data Analysis: Endpoint chemiluminescence from high and low control wells were used to calculate normalized c-KIT activity at various concentrations of test compounds. The normalized activities were fitted to inhibitor-versus-normalized response fit in GraphPad Prism 7 to determine half-maximal inhibitory concentration (IC50) and hill coefficient values (H).
Where I is the inhibitor concentration and H is the Hill coefficient.

[2] = tested on: M-07e cells which endogenously express human c-KIT; experiment: M-07e cellular assay: SCF-mediated cell proliferation (CellTiter Glo); format: cell-based; details: 72 h, SCF-mediated proliferation of M-07e cells
Protocol: M-07e cells (Creative Bioarray, CSC-C0249) which endogenously express human c-KIT were used to evaluate the effect of compounds on stem cell factor (SCF)-mediated cell proliferation. M-07e cells were cultured in growth media (RPMI+10% FBS+1% penicillin/streptomycin+10 ng/mL GM-CSF) at 5E5-1.5E6 cells/mL, replenishing media every 3-4 days. 1.5E4 cells were seeded per well in 384 well tissue culture treated plates in […] assay media (RPMI+10% FBS+1% penicillin/streptomycin) without growth factor stimulation and incubated at 37° C. in a CO2 humidity-controlled incubator. Twenty-four hours later, three-fold serially diluted test compounds in media containing SCF (at the previously determined EC90) were added to the plated M-07e cells and incubated for an additional 72 hours. Cell viability was determined by adding 25 μL CellTiter Glo (Promega) to the cells and the luminescence was measured using a Perkin Elmer Envision plate reader. The EC50 was determined using GraphPad Prism. Percent cell growth was determined after normalizing the curve to the mean RLU high control (no compound control wells) at 100% and the mean RLU low control (no SCF control wells) at 0%.

T1 sequence (P10721 544-976 limits assumed): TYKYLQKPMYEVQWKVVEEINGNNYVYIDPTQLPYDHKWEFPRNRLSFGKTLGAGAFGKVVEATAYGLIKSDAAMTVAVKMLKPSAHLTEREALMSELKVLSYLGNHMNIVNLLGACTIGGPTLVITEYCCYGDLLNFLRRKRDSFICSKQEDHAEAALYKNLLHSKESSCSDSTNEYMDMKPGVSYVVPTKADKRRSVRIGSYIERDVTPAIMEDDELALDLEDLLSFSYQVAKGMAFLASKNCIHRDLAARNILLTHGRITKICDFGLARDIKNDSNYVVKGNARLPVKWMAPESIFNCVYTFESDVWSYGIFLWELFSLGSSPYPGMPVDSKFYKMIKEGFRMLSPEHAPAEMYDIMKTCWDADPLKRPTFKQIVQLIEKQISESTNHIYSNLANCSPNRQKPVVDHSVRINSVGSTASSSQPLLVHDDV

Row | Structure (SMILES) | IC50 [1] [nM] | EC50 [2] [nM]
1 | Cc1ccc(-c2noc(C3C[C@@H]3F)n2)cc1NC(=O)c1cnc(-c2cnc(N3CC(O)(C(F)(F)F)C3)nc2)o1 (stereo partly drawn) [Example 402] | > 1000 | 100 to 1000
2 | Cc1ncc(-c2nnn(C3CC3)n2)cc1NC(=O)c1cnn2ccc(N3CC4(C3)CC(O)(C(F)F)C4)cc12 [Example 403] | 100 to 1000 | < 100
3 | Cc1ncc(-c2nnc(C3C[C@@H]3F)o2)cc1NC(=O)c1cnn2ccc(N3CC4(C3)CC(O)(C(F)F)C4)cc12 (stereo partly drawn) [Example 404] | 100 to 1000 | 100 to 1000
4 | Cc1ncc(-c2nc([C@H]3C[C@@H]3F)cs2)cc1NC(=O)c1cnn2ccc(N3CC4(C3)CC(O)(C(F)F)C4)cc12 [Example 405] | 100 to 1000 | < 100
5 | Cc1ncc(-c2noc(C3C[C@@H]3F)n2)cc1NC(=O)c1cnn2ccc(-c3cn(C[C@H](O)C(C)(C)O)nc3C3CC3)cc12 (stereo partly drawn) [Example 406] | < 100 | < 100
6 | Cc1ncc(-c2nnc(C3C[C@@H]3F)s2)cc1NC(=O)c1cnn2ccc(N3CC4(C3)CC(O)(C(F)F)C4)cc12 (stereo partly drawn) [Example 407] | 100 to 1000 | < 100
